Assay results: patent US20260184669A1, “LIPID COMPOUND AND COMPOSITION FOR DELIVERY OF ACTIVE SUBSTANCE” (KOREA RESEARCH INSTIUTE OF BIOSCIENCE AND BIOTECHNOLOGY, priority 2022, published 2026)

Key:
[1] = Size, polydispersity index and surface charge of mRNA-LNP (Malvern Zetasizer Nano ZS90); type: physicochemical; conditions: for PDI / size (nm) Number: mRNA-LNP made with the ionizable lipid at its optimal formulation (Table 2); for size (nm) Number: diluted with PBS to 1 μg/mL mRNA; for Zeta (mV): surface charge of mRNA-LNP made with the ionizable lipid at its optimal formulation (Table 2)
Procedure: Each mRNA-LNPs produced in Example 27 was diluted with PBS to a final mRNA concentration of 1 μg/mL. The size, polydispersity index (PDI), and surface charge of the mRNA-LNPs were then measured using a Malvern Zetasizer Nano ZS90 (Malvern Instruments, UK).
For particles intended for systemic administration, such as via blood vessels, the particle size must be less than 200 nm in order to pass through the endothelial capillaries of the liver. In addition, the size distribution is considered uniform only when the PDI is 0.3 or less, which enables consistent and efficient therapeutic effects (Non-patent document 3 [Danaei, M. et al). Pharmaceutics 2018, 10, 57]).

[2] = mRNA encapsulation efficiency (Quant-IT RiboGreen RNA assay); type: physicochemical; conditions: mRNA encapsulation efficiency of mRNA-LNP made with the ionizable lipid; average of two measurements
Procedure: The mRNA encapsulation efficiency (EE, %) of LNPs containing mRNA was measured using the Quant-IT™ RiboGreen® RNA assay kit (Invitrogen, USA).
The diluted samples were added to each well of a 96-well plate. Group A (without Triton X-100) was supplemented with 50 μL of 1×TE buffer, while Group B (with Triton X-100) was supplemented with 50 μL of 1×TE buffer containing 2% Triton-X 100. To release the encapsulated mRNA, the LNPs were treated with Triton-X 100 and incubated at 37° C. for 10 minutes. Subsequently, 100 μL of ribogreen reagent was added to each well. The fluorescence intensities of Group A and Group B were measured using a multi-plate reader (λex 480 nm, λem 520 nm), and mRNA encapsulation efficiency (%) was calculated using Equation 1 below. The encapsulation efficiency for each LNP was determined as the average of two independent measurements.

female C57BL/6 mice = experiment: Protein expression efficiency of fLuc mRNA-LNPs after intramuscular injection (IVIS whole-body luminescence); type: in vivo; conditions: for Total flux 1 hour / Total flux 3 hours / Total flux 6 hours / Total flux 48 hours / Total flux 72 hours / Total flux: fLuc mRNA-LNP, intramuscular injection, luminescence at injection site, mice; for Total flux 1 hour: 1 hour after administration; for Total flux 3 hours: 3 hours after administration; for Total flux 6 hours: 6 hours after administration; for Total flux 48 hours: 48 hours after administration; for Total flux 72 hours: 72 hours after administration; for Total flux: after administration; for Fold increase in total flux at 3 h, MC3: relative to control LNP formulated with MC3; for Fold increase in total flux at 3 h, MC3 / Fold increase in total flux at 3 h, SM-102: 3 hours after intramuscular injection; for Fold increase in total flux at 3 h, SM-102: relative to control LNP formulated with SM-102
Procedure: fLuc mRNA-LNPs formulated using various ionizable lipids were prepared according to the method described in Example 27 and administered in vivo via intramuscular (I. M.) or intravenous (IV.) injection to compare the resulting protein expression efficiency in vivo. As a control, EGFP mRNA-LNPs formulated with commercially available ionizable lipids MC3 or SM-102 were used. All mRNA-LNPs were administered at equal mRNA doses per body weight across different concentration groups (n≥4).
Specifically, the dose of mRNA-LNPs was adjusted to 0.1-0.5 mg/kg of body weight, and the formulation was administered via I.M. or I.V. injection to female C57BL/6 mice (6-10 weeks old, Orient Bio, Korea) Subsequently, […], whole-body luminescence images were acquired using an in vivo imaging system (IVIS Lumina III, PerkinElmer, Walzam, MA, USA). To assess protein expression levels, 200 μL of D-luciferin (15 mg/mL) was administered via intraperitoneal (I.P.) injection 10 minutes prior to imaging. During image acquisition, the animals were anesthetized by inhalation of 3% isoflurane in 97% medical grade oxygen. In addition, the acquired luminescence images were quantitatively analyzed using imaging software (Living Image Software Version 4.4; PerkinElmer, USA).
After intramuscular injection of the fLuc mRNA-LNPs, the luminescence intensity at the injection site was measured over time.
Furthermore, the luminescence intensity at the injection site 3 hours after intramuscular injection was measured, and the relative protein expression efficiency was compared to that of control LNPs formulated with MC3 or SM-102.

[3] = Stability of mRNA-LNPs according to storage temperature and duration; type: physicochemical; conditions: for Normalized EE % D-1 / Size (nm) D-1 / PDI D-1: day 1; for Normalized EE % D-7 / PDI D-7 / Size (nm) D-7: day 7; for Normalized EE % D-30 / PDI D-30 / Size (nm) D-30: day 30
Procedure: Stability of fLuc mRNA-LNPs produced using various ionizable lipids according to the method of Example 27, was assessed by storing the LNPs at 4° C. and 25° C. At 1, 7, and 30 days post-manufacture, the size, PDI, and encapsulation efficiency (EE) of each mRNA-LNPs samples were measured using the methods described in Experimental Examples 2 and 3.

[4] = tested on: CCL2 mRNA level in HEK-293T cells; conditions: human
[5] = tested on: CCL3 mRNA level in HEK-293T cells; conditions: human
[6] = tested on: IL-1β mRNA level in HEK-293T cells; conditions: human
[7] = tested on: IL-6 mRNA level in HEK-293T cells; conditions: human

SMILES | PDI [1] | size (nm) Number [1] [nm] | Zeta (mV) [1] [mV] | EE (%) [2] [%] | Total flux 1 hour (female C57BL/6 mice) | Total flux 3 hours (female C57BL/6 mice) | Total flux 6 hours (female C57BL/6 mice) | Total flux 48 hours (female C57BL/6 mice) | Total flux 72 hours (female C57BL/6 mice) | Total flux (female C57BL/6 mice) | Fold increase in total flux at 3 h, MC3 (female C57BL/6 mice) | Fold increase in total flux at 3 h, SM-102 (female C57BL/6 mice) | Normalized EE % D-1 ([3]; fLuc mRNA-LNP stored at 4° C.) [%] | Size (nm) D-1 ([3]; fLuc mRNA-LNP stored at 4° C.) [nm] | Normalized EE % D-7 ([3]; fLuc mRNA-LNP stored at 4° C.) [%] | PDI D-7 ([3]; fLuc mRNA-LNP stored at 4° C.) | Size (nm) D-7 ([3]; fLuc mRNA-LNP stored at 4° C.) [nm] | Normalized EE % D-1 ([3]; fLuc mRNA-LNP stored at 25° C.) [%] | PDI D-1 ([3]; fLuc mRNA-LNP stored at 25° C.) | Size (nm) D-1 ([3]; fLuc mRNA-LNP stored at 25° C.) [nm] | also measured
CCCCCCCCCCCOC(=O)CCCCCN(CCCCCCCC(=O)OC(CCCCCCCC)CCCCCCCC)CC(O)CCCCNC(=O)c1ccn(C)c1 (stereo not drawn) [Compound 19, Heptadecan-9-yl 8-((2-hydroxy-6-(1-methyl-1H-pyrrole-3-carboxamido)hexyl) (6-oxo-6-(undecyloxy)hexyl)amino)octanoate] | 0.193 | 185 | −5.68 | 93 | 3.16E+07 | 5.15E+07 | 3.82E+07 | 1.12E+06 | 5.38E+05 | 8.29E+06 | 4.17 | 0.46 | 93.1 | 184.7 | 90.6 | 0.122 | 161.2 | 93.1 | 0.193 | 184.7 | Normalized EE % D-30 ([3]; fLuc mRNA-LNP stored at 4° C.): 87.2%; PDI D-30 ([3]; fLuc mRNA-LNP stored at 4° C.): 0.071; Size (nm) D-30 ([3]; fLuc mRNA-LNP stored at 4° C.): 177.4 nm; Normalized EE % D-7 ([3]; fLuc mRNA-LNP stored at 25° C.): 88.1%; PDI D-7 ([3]; fLuc mRNA-LNP stored at 25° C.): 0.107; Size (nm) D-7 ([3]; fLuc mRNA-LNP stored at 25° C.): 172.5 nm; Normalized EE % D-30 ([3]; fLuc mRNA-LNP stored at 25° C.): 88.3%; PDI D-30 ([3]; fLuc mRNA-LNP stored at 25° C.): 0.159; Size (nm) D-30 ([3]; fLuc mRNA-LNP stored at 25° C.): 171.7 nm; CCL2 Average [4]: 0.91; CCL3 Average [5]: 1.04; IL-1β Average [6]: 1.07; IL-6 Average [7]: 0.89
CCCCCCCCCCCOC(=O)CCCCCN(CCCCCCCC(=O)OC(CCCCCCCC)CCCCCCCC)CC(O)CCCCNC(=O)c1c(O)ccn1C (stereo not drawn) [Compound 24, Heptadecan-9-yl 8-((2-hydroxy-6-(3-hydroxy-1-methyl-1H-pyrrole-2-carboxamido)hexyl)(6-oxo-6-(undecyloxy)hexyl)amino)octanoate] | 0.114 | 137 | −7.89 | 90 | 6.70E+06 | 3.49E+07 | 4.45E+07 | 3.86E+06 | 3.66E+06 | 7.85E+06 | 2.82 | 0.31 | 89.7 | 136.9 | 90.5 | 0.114 | 123.7 | 89.7 | 0.114 | 136.9 | Normalized EE % D-7 ([3]; fLuc mRNA-LNP stored at 25° C.): 89.6%; PDI D-7 ([3]; fLuc mRNA-LNP stored at 25° C.): 0.163; Size (nm) D-7 ([3]; fLuc mRNA-LNP stored at 25° C.): 113.5 nm; CCL2 Average [4]: 0.96; CCL3 Average [5]: 1.36; IL-1β Average [6]: 0.99; IL-6 Average [7]: 0.87
CCCCCCCCCCCOC(=O)CCCCCN(CCCCCCCC(=O)OC(CCCCCCCC)CCCCCCCC)CC(O)CCCCNC(=O)c1c[nH]c(O)n1 (stereo not drawn) [Compound 35, Heptadecan-9-yl 8-((2-hydroxy-6-(2-hydroxy-1H-imidazole-4-carboxamido)hexyl)(6-oxo-6-(undecyloxy)hexyl)amino)octanoate] | 0.040 | 123 | −3.90 | 90 | 1.54E+07 | 4.49E+07 | 5.04E+07 | 7.96E+05 | 1.27E+06 | 6.12E+06 | 3.64 | 0.40 | 90.2 | 123.4 | 83.7 | 0.089 | 130.3 | 90.2 | 0.040 | 123.4 | Normalized EE % D-30 ([3]; fLuc mRNA-LNP stored at 4° C.): 88.6%; PDI D-30 ([3]; fLuc mRNA-LNP stored at 4° C.): 0.127; Size (nm) D-30 ([3]; fLuc mRNA-LNP stored at 4° C.): 141.3 nm; Normalized EE % D-7 ([3]; fLuc mRNA-LNP stored at 25° C.): 85.3%; PDI D-7 ([3]; fLuc mRNA-LNP stored at 25° C.): 0.098; Size (nm) D-7 ([3]; fLuc mRNA-LNP stored at 25° C.): 133.3 nm; Normalized EE % D-30 ([3]; fLuc mRNA-LNP stored at 25° C.): 88.3%; PDI D-30 ([3]; fLuc mRNA-LNP stored at 25° C.): 0.076; Size (nm) D-30 ([3]; fLuc mRNA-LNP stored at 25° C.): 123.8 nm; CCL2 Average [4]: 1.42; CCL3 Average [5]: 2.30; IL-1β Average [6]: 0.91; IL-6 Average [7]: 1.14
CCCCCCCCCCCOC(=O)CCCCCN(CCCCCCCC(=O)OC(CCCCCCCC)CCCCCCCC)CC(O)CCCCNC(=O)c1nccn1C (stereo not drawn) [Compound 36, Heptadecan-9-yl 8-((2-hydroxy-6-(1-methyl-1H-imidazole-2-carboxamido)hexyl)(6-oxo-6-(undecyloxy)hexyl)amino)octanoate] | 0.073 | 112 | −3.19 | 87 | 1.62E+07 | 4.51E+07 | 3.18E+07 | 3.79E+06 | 3.09E+06 | 1.03E+07 | 3.65 | 0.40 | 87.2 | 111.9 | 89.1 | 0.146 | 114.4 | 87.2 | 0.073 | 111.9 | Normalized EE % D-30 ([3]; fLuc mRNA-LNP stored at 4° C.): 86.6%; PDI D-30 ([3]; fLuc mRNA-LNP stored at 4° C.): 0.076; Size (nm) D-30 ([3]; fLuc mRNA-LNP stored at 4° C.): 120.9 nm; Normalized EE % D-7 ([3]; fLuc mRNA-LNP stored at 25° C.): 89.0%; PDI D-7 ([3]; fLuc mRNA-LNP stored at 25° C.): 0.123; Size (nm) D-7 ([3]; fLuc mRNA-LNP stored at 25° C.): 110.6 nm; Normalized EE % D-30 ([3]; fLuc mRNA-LNP stored at 25° C.): 83.8%; PDI D-30 ([3]; fLuc mRNA-LNP stored at 25° C.): 0.092; Size (nm) D-30 ([3]; fLuc mRNA-LNP stored at 25° C.): 119.2 nm; CCL2 Average [4]: 1.86; CCL3 Average [5]: 2.40; IL-1β Average [6]: 0.96; IL-6 Average [7]: 1.30
